Assays:
Brontispa longissima [1] = assay: Ratio of compound AFC50 to combrestatin A-4 AFC50 for third-instar larval stage of Brontispa longissima; assay type: functional
Brontispa longissima [2] = assay: Antifeedant activity against third-instar larval stage of Brontispa longissima in […] assessed as decrease in leaf surface consumption treated for 30 secs prior to larval infestation measured after 48 hr by leaf-dipping method; assay type: functional

SMILES | Ratio (Brontispa longissima [1]) | AFC50 (Brontispa longissima [2]) [mg/mL] | pAFC50 (Brontispa longissima [2])
COc1ccc(/C=C(/C(=O)O)c2cc(OC)c(OC)c(OC)c2)cc1O | 7 | 1.461 | -0.17
Oc1ccc(/C=C\c2ccc3c(c2)OCO3)cc1 | – | 1.005 | 0
COc1ccc(/C=C\c2cc(OC)c(OC)c(OC)c2)cc1 | – | 0.327 | 0.48
COc1ccc(/C=C(/C#N)c2cc(OC)c(OC)c(OC)c2)cc1O | – | 0.431 | 0.36
COc1cc(/C=C\c2ccc3c(c2)OCO3)cc(OC)c1OC | – | 0.731 | 0.14
COc1cc(/C=C\c2ccc(OC(C)=O)c(OC(C)=O)c2)cc(OC)c1OC | – | 1.918 | -0.28
COc1cc(/C=C\c2ccccc2)cc(OC)c1OC | – | 0.529 | 0.28
COc1ccc(/C=C\c2cc(OC)c(OC)c(OC)c2)cc1O [COMBRETASTATIN A4] | – | 0.218 | 0.66
COc1cc(/C=C\c2cc(Cl)cc(Cl)c2)cc(OC)c1OC | 5 | 2.234 | -0.35
COc1cc(/C=C\c2ccc(OC(C)=O)cc2)cc(OC)c1OC | 3 | 0.843 | 0.07
COc1cc(/C=C\c2ccc(Cl)cc2)cc(OC)c1OC | – | 1.634 | -0.21
COc1ccc(/C=C(/C(N)=O)c2cc(OC)c(OC)c(OC)c2)cc1O | – | 0.736 | 0.13
COc1cc(/C=C\c2ccc(O)cc2)cc(OC)c1OC | – | 1.261 | -0.1
COc1ccc(/C=C(/CO)c2cc(OC)c(OC)c(OC)c2)cc1O | – | 0.226 | 0.65
COc1cc(/C=C\c2ccc([N+](=O)[O-])cc2[N+](=O)[O-])cc(OC)c1OC | 5 | 1.05 | -0.02
CC(=O)Oc1ccc(/C=C\c2ccc(OC(C)=O)c(OC(C)=O)c2)cc1 | – | 0.64 | 0.19
Oc1ccc(/C=C\c2ccccc2)cc1 | – | 1.161 | -0.06
COC(=O)/C(=C/c1ccc(OC)c(O)c1)c1cc(OC)c(OC)c(OC)c1 | 7 | 1.453 | -0.16
COc1ccc(/C=C\c2ccc(OC(C)=O)cc2)cc1OC(C)=O | – | 2.501 | -0.4
Oc1ccc(/C=C/c2cc(O)cc(O)c2)cc1 [RESVERATROL] | – | 0.816 | –
O=[N+]([O-])c1ccc(/C=C\c2ccc(O)cc2)cc1 | – | 1.185 | -0.07
COc1ccc(/C=C\c2ccc(O)cc2)cc1[N+](=O)[O-] | – | 1.301 | -0.11
COc1ccc(/C=C/c2cc(OC)c(OC)c(OC)c2)cc1O [E-COMBRETASTATIN A-4] | – | 0.357 | 0.45
COc1cc(/C=C\c2ccc([N+](=O)[O-])cc2)cc(OC)c1OC | 3 | 0.982 | 0.01
Oc1ccc(/C=C\c2ccc(Cl)cc2)cc1 | – | 0.412 | 0.39
COc1ccc(/C=C\c2ccc(OC(C)=O)cc2)cc1 | – | 0.732 | 0.14
